Test results reported in PubChem BioAssay AID248 (DTP/NCI, 2004).
Values joined by “and” are separate entries in the source; they are usually repeats but may differ in a detail not shown here. Identical values can stand only once. Toxic doses and inconclusive results are not listed. Rule as the data show it: active = T/C of 150% or more; inactive = T/C below 125%.

Tested on: L1210 leukemia ip in BDF1 mice, survival T/C
Assay: NCI In Vivo Anticancer Drug Screen. Data for tumor model L1210 Leukemia (intraperitoneal) in B6D2F1 (BDF1) mice
Details: endpoint: mean survival time, higher = longer survival
Outline: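 Tumor cells were implanted, animals were treated, and survival was followed. The result divides the treated measurement by the vehicle-control measurement.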

[1] = dose: 100.0 mg/kg/injection, schedule: Q01DX001 (ip), vehicle: saline
[2] = dose: 200.0 mg/kg/injection, schedule: Q01DX001 (ip), vehicle: saline
[3] = dose: 400.0 mg/kg/injection, schedule: Q01DX001 (ip), vehicle: saline
[4] = dose: 25.0 mg/kg/injection, schedule: Q04DX002 (ip), vehicle: Klucel (hydroxypropylcellulose) (HPC)
[5] = dose: 50.0 mg/kg/injection, schedule: Q04DX002 (ip), vehicle: Klucel (hydroxypropylcellulose) (HPC)
[6] = dose: 100.0 mg/kg/injection, schedule: Q04DX003 (ip), vehicle: Klucel (hydroxypropylcellulose) (HPC)
[7] = dose: 200.0 mg/kg/injection, schedule: Q04DX003 (ip), vehicle: Klucel (hydroxypropylcellulose) (HPC)
[8] = dose: 400.0 mg/kg/injection, schedule: Q04DX003 (ip), vehicle: Klucel (hydroxypropylcellulose) (HPC)
[9] = dose: 100.0 mg/kg/injection, schedule: Q01DX001 (ip), vehicle: carboxymethylcellulose (CMC)
[10] = dose: 200.0 mg/kg/injection, schedule: Q01DX001 (ip), vehicle: carboxymethylcellulose (CMC)
[11] = dose: 400.0 mg/kg/injection, schedule: Q01DX001 (ip), vehicle: carboxymethylcellulose (CMC)
[12] = dose: 100.0 mg/kg/injection, schedule: Q01DX001 (ip), vehicle: Klucel (hydroxypropylcellulose) (HPC)
[13] = dose: 100.0 mg/kg/injection, schedule: Q01DX009 (ip), vehicle: Klucel (hydroxypropylcellulose) (HPC)
[14] = dose: 200.0 mg/kg/injection, schedule: Q01DX001 (ip), vehicle: Klucel (hydroxypropylcellulose) (HPC)
[15] = dose: 200.0 mg/kg/injection, schedule: Q01DX009 (ip), vehicle: Klucel (hydroxypropylcellulose) (HPC)
[16] = dose: 400.0 mg/kg/injection, schedule: Q01DX001 (ip), vehicle: Klucel (hydroxypropylcellulose) (HPC)

Measured: T/C

O=C(Nc1ccc(Cc2ccc(NC(=O)Nc3cccc(C4=NCCN4)c3)cc2)cc1)Nc1cccc(C2=NCCN2)c1
inactive: dose: 111.0 mg/kg/injection, schedule: Q01DX Z (ip), vehicle: carboxymethylcellulose (CMC) 101 % of control | dose: 120.0 mg/kg/injection, schedule: Q01DX Z (ip), vehicle: carboxymethylcellulose (CMC) 98 % of control | dose: 166.0 mg/kg/injection, schedule: Q01DX Z (ip), vehicle: carboxymethylcellulose (CMC) 101 % of control | dose: 180.0 mg/kg/injection, schedule: Q01DX Z (ip), vehicle: carboxymethylcellulose (CMC) 98 % of control | dose: 250.0 mg/kg/injection, schedule: Q01DX Z (ip), vehicle: carboxymethylcellulose (CMC) 107 % of control | dose: 270.0 mg/kg/injection, schedule: Q01DX Z (ip), vehicle: carboxymethylcellulose (CMC) 101 % of control | dose: 375.0 mg/kg/injection, schedule: Q01DX Z (ip), vehicle: carboxymethylcellulose (CMC) 107 % of control | dose: 405.0 mg/kg/injection, schedule: Q01DX Z (ip), vehicle: carboxymethylcellulose (CMC) 100 % of control

CC1C(=O)C=C2CCCC(C)(C)C2(C)C1(O)CCc1ccoc1 (stereo unspecified)
inactive: [1] 103 % of control | [2] 97 % of control | [3] 107 % of control

c1ccc2c(c1)CCc1ccccc1CNC2
inactive: [4] 111 % of control | [5] 106 % of control

O=C1OC(c2ccccc2)CC1N1CCOCC1 (stereo unspecified)
inactive: dose: 100.0 mg/kg/injection, schedule: Q01DX009 (ip), vehicle: saline sonified 106 % of control | [6] 98 % of control | dose: 200.0 mg/kg/injection, schedule: Q01DX009 (ip), vehicle: saline sonified 99 % of control | [7] 104 % of control | dose: 400.0 mg/kg/injection, schedule: Q01DX009 (ip), vehicle: saline sonified 97 % of control | [8] 98 % of control

[N-]=[N+]=NCCC[CH2][Pb]([c]1ccccc1)([c]1ccccc1)[c]1ccccc1
inactive: dose: 50.0 mg/kg/injection, schedule: Q01DX001 (ip), vehicle: carboxymethylcellulose (CMC) 96 % of control | [9] 102 % of control | [10] 100 % of control | [11] 96 % of control

O=C1NC2c3ccccc3CC12 (stereo unspecified)
inactive: dose: 100.0 mg/kg/injection, schedule: Q01DX001 (ip), vehicle: saline with Tween-80 95 % of control | dose: 200.0 mg/kg/injection, schedule: Q01DX001 (ip), vehicle: saline with Tween-80 92 % of control | dose: 400.0 mg/kg/injection, schedule: Q01DX001 (ip), vehicle: saline with Tween-80 89 % of control

CC(=O)Oc1cc(NC(=O)c2ccccc2)ccc1NC(=O)c1ccccc1
inactive: [12] 93 % of control | [13] 89 % of control | [14] 92 % of control | [15] 90 % of control | [16] 104 % of control | dose: 400.0 mg/kg/injection, schedule: Q01DX009 (ip), vehicle: Klucel (hydroxypropylcellulose) (HPC) 100 % of control

C#CC1(NC(=S)NC(=O)c2ccccc2)CCCCC1
inactive: dose: 25.0 mg/kg/injection, schedule: Q01DX009 (ip), vehicle: Klucel (hydroxypropylcellulose) (HPC) 93 % of control | dose: 50.0 mg/kg/injection, schedule: Q01DX009 (ip), vehicle: Klucel (hydroxypropylcellulose) (HPC) 94 % of control | [13] 94 % of control and 88 % of control

CS(=O)(=O)Nc1ccccc1
inactive: dose: 75.0 mg/kg/injection, schedule: Q04DX003 (ip), vehicle: Klucel (hydroxypropylcellulose) (HPC) 98 % of control | [12] 96 % of control | dose: 150.0 mg/kg/injection, schedule: Q04DX003 (ip), vehicle: Klucel (hydroxypropylcellulose) (HPC) 93 % of control | [14] 101 % of control | dose: 300.0 mg/kg/injection, schedule: Q04DX003 (ip), vehicle: Klucel (hydroxypropylcellulose) (HPC) 93 % of control | [16] 96 % of control

COc1ccc(N=C(N)NC#N)cc1
inactive: [13] 100 % of control | [6] 93 % of control | [15] 97 % of control | [7] 92 % of control | [8] 97 % of control

C/C(=N\NC(=S)Nc1cc(I)ccc1C)c1cc([N+](=O)[O-])c(O)cc1O
inactive: dose: 12.5 mg/kg/injection, schedule: Q04DX002 (ip), vehicle: Klucel (hydroxypropylcellulose) (HPC) 102 % of control | [4] 97 % of control | [5] 105 % of control

C[N+](C)(C)c1ncncn1
inactive: dose: 12.0 mg/kg/injection, schedule: Q04DX003 (ip), vehicle: saline 98 % of control | dose: 25.0 mg/kg/injection, schedule: Q04DX003 (ip), vehicle: saline 98 % of control | dose: 50.0 mg/kg/injection, schedule: Q04DX003 (ip), vehicle: saline 104 % of control

CCCCCCCCC1SC1CCCCCCCCOC(=O)CCCCCCCC1SC1CCCCCCCC (stereo unspecified)
inactive: dose: 100.0 mg/kg/injection, schedule: Q01DX009 (ip), vehicle: saline with Tween-80 101 % of control | dose: 200.0 mg/kg/injection, schedule: Q01DX009 (ip), vehicle: saline with Tween-80 93 % of control | dose: 400.0 mg/kg/injection, schedule: Q01DX009 (ip), vehicle: saline with Tween-80 91 % of control

C[N+](C)(C)Cc1c[nH]c2ccsc12
inactive: dose: 12.5 mg/kg/injection, schedule: Q01DX001 (ip), vehicle: saline with Tween-80 107 % of control

CC(=O)C(=Cc1c[nH]c2ccccc12)C(C)=O
inactive: dose: 50.0 mg/kg/injection, schedule: Q01DX009 (ip), vehicle: water 98 % of control | dose: 100.0 mg/kg/injection, schedule: Q01DX009 (ip), vehicle: water 112 % of control | dose: 100.0 mg/kg/injection, schedule: Q04DX003 (ip), vehicle: water 106 % of control | dose: 200.0 mg/kg/injection, schedule: Q01DX009 (ip), vehicle: water 98 % of control | dose: 200.0 mg/kg/injection, schedule: Q04DX003 (ip), vehicle: water 103 % of control | dose: 400.0 mg/kg/injection, schedule: Q01DX009 (ip), vehicle: water 95 % of control | dose: 400.0 mg/kg/injection, schedule: Q04DX003 (ip), vehicle: water 104 % of control

CC(C)(C)c1cc(O)c(C(C)(C)C)cc1O
inactive: dose: 50.0 mg/kg/injection, schedule: Q01DX001 (ip), vehicle: saline 90 % of control | [1] 96 % of control | dose: 100.0 mg/kg/injection, schedule: Q04DX002 (ip), vehicle: gum acacia 106 % of control | [2] 94 % of control | dose: 200.0 mg/kg/injection, schedule: Q04DX002 (ip), vehicle: gum acacia 106 % of control | [3] 98 % of control | dose: 400.0 mg/kg/injection, schedule: Q04DX002 (ip), vehicle: gum acacia 108 % of control

O=[N+]([O-])c1ccc2c(c1)c(-c1cccc(-c3ccccc3)c1)nc1ccccc12
inactive: dose: 100.0 mg/kg/injection, schedule: Q04DX003 (ip), vehicle: saline with Tween-80 95 % of control | dose: 200.0 mg/kg/injection, schedule: Q04DX003 (ip), vehicle: saline with Tween-80 88 % of control

COc1ccc(NC(=O)N(O)C2(C#N)CCCCC2)cc1
inactive: [9] 98 % of control | [10] 94 % of control | [11] 88 % of control

O=C(OCCOc1ccccc1)c1ccc([N+](=O)[O-])cc1
inactive: [1] 100 % of control | [2] 98 % of control | [3] 116 % of control

O=C1CCC(=O)N1
inactive: [6] 103 % of control | [7] 102 % of control | [8] 100 % of control
